Patent US20070155661A1, “Methods and compositions for modulating the development of stem cells” (THE BOARD of TRUSTEES of the LELAND STANDORD JUNIOR …, priority 2003, published 2007)

System: mouse ES cell-derived IPCCs
Test: Insulin production by mouse ES cell-derived insulin-producing cell clusters (IPCCs)
Format: cell-based
Protocol: In duplicate experiments, we detect approximately 6000 ng insulin/mg protein produced by mouse embryoid bodies treated with a sequence of growth factors including GDF8.

With “GDF8: BMP/TGF-beta family growth factor, ~80% identical to GDF11 in the mature region” the “effect on insulin production” value (mouse ES cell-derived IPCCs) was “promotes insulin production” and the “insulin produced by mouse embryoid bodies” value (mouse embryoid bodies treated with a sequence of growth factors including GDF8, duplicate experiments) was “approximately 6000 ng insulin/mg protein”.
